According to patent publication US20250319032A1, “PHARMACEUTICAL COMPOSITIONS OF RIBOCICLIB” (Novartis AG, priority 2024, published 2025):

Legend:
[1] = test system: lacZ transgene within the bone marrow, liver, kidney, and duodenum from treated Muta™ Mice; assay: Transgenic gene mutation assay in Muta™ Mice (lacZ); type: in vivo, Muta™ Mouse CD2-lacZ80/HazfBR; details: oral gavage, 28 consecutive days, sampling day 31
Text: A study is on-going, with the objective of evaluating the potential of DMP433 to induce gene mutations in the lacZ transgene within the bone marrow, liver, kidney, and duodenum from treated Muta™ Mice. The bone marrow and liver will be examined as these tissues are expected to be highly exposed to DMP433 upon oral gavage dosing and/or representative of organs with fast and slow dividing cells respectively. The duodenum will be assessed as a site of contact tissue following oral gavage dosing. The kidney will also be examined as a standard target organ for tumours for nitrosamines.
The animals used will be transgenic mouse of the strain Muta™ Mouse CD2-lacZ80/HazfBR (supplied by Charles River, UK). The animals will have an age range of approximately 8 to 12 weeks on the first day of dosing, and a weight range of approximately 18 to 35 g. […]
Based on the toxicity and bioanalytical data generated under Labcorp Study Number 8526660, the maximum tolerated dose level (MTD) of 100 mg/kg/day* will be used as the high dose level. […] As there is a crossover in exposure between males and females, vehicle controls and the MTD of 100 mg/kg/day only will be evaluated in females. • group 4 male animals given 80 mg/kg/day from Day 4 of dosing onwards due to mortality/morbidity. […]

[2] = Bioanalysis and toxicokinetic evaluation of DMP433 in mouse plasma and tissues; type: in vivo; details: 100 mg/kg/day, Day 14
Method: (§1) In a previously conducted range-finding study (Labcorp Study Number 8526660) DMP433 was dosed orally in groups of 6 males and 6 females at 500, 100 or 50 mg/kg/day daily for up to 14 days. […] Where clinical signs were seen, animals had recovered prior to dosing the following day. A single Day 1 (Subgroup 1) female satellite animal was removed from the study due to the severity of the clinical observations. […] Where clinical signs were seen, animals had recovered prior to dosing the following day. […] Therefore, dosing in males and females will be conducted.
The blood samples will be processed. Determination of DMP433 in mouse plasma containing K2EDTA as an anticoagulant will be conducted by Labcorp Bioanalytical in accordance with Labcorp Policies, and all procedures will be conducted following method DMP4MPP validated under Labcorp study number 8527178.
Toxicokinetic parameters will be estimated using Phoenix® WinNonlin® version 8.1 or higher (Certara USA, Inc., Princeton, New Jersey). A non-compartmental approach consistent with the oral route of administration will be used for parameter estimation. […]
For determination of mean DMP433 concentrations, concentration values that are below the limit of quantitation will be treated as zero. […]
Bioanalytical data will be used as received for the toxicokinetic analysis. Toxicokinetic parameters will be calculated. […]

[3] = test system: Muta™ Mice; assay: Range-finding oral toxicity study of DMP433 (Labcorp Study Number 8526660); type: in vivo, mouse
Method: as §1
(§2) Based on the toxicity and bioanalytical data generated under Labcorp Study Number 8526660, the maximum tolerated dose level (MTD) of 100 mg/kg/day* will be used as the high dose level. Two further doses of 50 and 25 mg/kg/day, will also be tested in males (OECD, 2022). As there is a crossover in exposure between males and females, vehicle controls and the MTD of 100 mg/kg/day only will be evaluated in females. • group 4 male animals given 80 mg/kg/day from Day 4 of dosing onwards due to mortality/morbidity.

[4] = as above; type: in vivo, mouse; details: both sexes, Muta™ Mouse, mouse, in vivo; oral, daily; read-out: maximum tolerated dose level (MTD)
Method: as §1, §2

[5] = Stability of DMP433 dose formulations in vehicle; type: physicochemical; details: 0.5 and 50 mg/mL; 2 to 8° C. and 15 to 25° C., protected from light
Method: The vehicle control is 2.2 eq HCl 1.ON (˜40%)+28% as powder sulfobutylether-β-cyclodextrin (pH 2.0+0.5), with storage conditions in dispensary of 2 to 8° C. protected from light.
The test item formulation will be prepared daily, unless stability data supports less frequent preparation. The stability data will be generated under Labcorp Study Number 8528626. DMP433 formulations in vehicle at concentrations of 0.5 and 50 mg/mL have been confirmed as stable for up to 8 days at 2 to 8° C. and 15 to 25° C., both protected from light. The storage conditions in central dispensary will be 15 to 25° C. protected from light.
The formulation will be analysed (HPLC/UV analysis, Lapcorp method 8528626-01F, version in force on 22nd February 2024) to confirm that it achieves concentration and homogeneity. Samples (as shown in the following tables, where n/a means not applicable) will be taken from the main experiment during week 1 and week 4 and analysed accordingly.

In the case of `CN(C)C(=O)c1cc2cnc(Nc3ccc(N4CCN(N=O)CC4)cn3)nc2n1C1CCCC1` [DMP433, 7-cyclopentyl-N,N-dimethyl-2-((5-(4-nitrosopiperazin-1-yl)pyridin-2-yl)amino)-7H-pyrrolo[2,3-d]pyrimidine-6-carboxamide], the “result of the gene mutation assay (capable of inducing mutation)” value [1] is reported as “positive”, the “sex difference in bioanalytical data” value [2] is reported as “approximately 2 fold” and the “bodyweight, Range-Finder 3” value ([3]; 50 mg/kg/day oral, 14 days) is reported as “all animals except one (male M5209) had gained bodyweight”. For the same compound, the “clinical signs, Range-Finder 3” value ([3]; 50 mg/kg/day oral, up to 14 days, Subgroup 2 animals) was “squinting, mild decreased activity and piloerection”, the “bodyweight, Range-Finder 2” value ([3]; 100 mg/kg/day oral, 14 days) was “all animals gained bodyweight during the 14-day dosing period” and the “clinical signs, Range-Finder 2” value ([3]; 100 mg/kg/day oral, up to 14 days, Subgroup 2 animals) was “squinting, partially closed eyes, fast respiration, mild hunched posture and piloerection”. The “outcome of Range-Finder 1” value ([3]; 500 mg/kg/day oral, 6 males and 6 females) was “terminated on day 1 due to animal mortality/morbidity and convulsions”, the MTD [4] was 100 mg/kg/day and the “time for which DMP433 formulations in vehicle are stable” value [5] was “up to 8 days”.
